The source of these data is patent US4657861A, “S-tetrahydroprotoberberineoxidase, process for producing the same and use thereof” (priority 1984, dated 1987).

Like-named read-outs stand apart in the source and are kept apart here.

Data set [1] addresses T1, S-tetrahydroprotoberberineoxidase (Berberis wilsoniae, UniProt F1BVB6). The experiment in a line: Enzymatic oxidation of R,S-substrates with S-tetrahydroprotoberberineoxidase preparation, photometric analysis. To be noted: 37° C.; for Fate of R-form under enzymatic oxidation: pH=8.9; for Conversion of S-form into oxidized product: pH=8.9, admission of air.
The target of data set [2] is T1, S-tetrahydroprotoberberineoxidase. To be noted: pH 8.9.
Data set [3] addresses T2, S-tetrahydroprotoberberineoxidase immobilized on calcium alginate (Berberis wilsoniae, UniProt F1BVB6).
T2 construct: S-tetrahydroprotoberberineoxidase can be obtained by extraction from plant materials; from tissue; host or cells: plant material (Berberis wilsoniae inferred)
T2 sequence (F1BVB6 25-530): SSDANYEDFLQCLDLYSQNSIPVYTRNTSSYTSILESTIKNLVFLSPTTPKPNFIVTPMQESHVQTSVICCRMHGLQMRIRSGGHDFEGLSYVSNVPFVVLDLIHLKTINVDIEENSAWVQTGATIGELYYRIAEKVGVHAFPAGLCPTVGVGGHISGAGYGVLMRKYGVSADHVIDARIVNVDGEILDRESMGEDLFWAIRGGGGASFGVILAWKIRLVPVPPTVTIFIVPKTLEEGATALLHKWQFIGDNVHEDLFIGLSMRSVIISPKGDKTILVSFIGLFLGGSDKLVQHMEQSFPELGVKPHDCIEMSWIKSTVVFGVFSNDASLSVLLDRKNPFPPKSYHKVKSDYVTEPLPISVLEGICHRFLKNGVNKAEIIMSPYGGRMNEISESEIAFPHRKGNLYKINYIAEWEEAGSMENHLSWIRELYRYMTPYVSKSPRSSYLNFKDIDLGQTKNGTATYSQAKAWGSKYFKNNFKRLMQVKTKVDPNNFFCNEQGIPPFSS
The experiment in a line: Enzymatic oxidation with S-tetrahydroprotoberberineoxidase immobilized on calcium alginate, photometric analysis. The note with it: immobilized enzyme, 30° C., 150 hours, pH=8.9, admission of air. It is filed as biochemical, Berberis wilsonae var. subcaulialata.

The target of data set [4] is T1, S-tetrahydroprotoberberineoxidase. The experiment in a line: Inhibition of S-tetrahydroprotoberberineoxidase. It counts as biochemical, Berberis wilsonae var. subcaulialata. Further details: S-tetrahydroprotoberberineoxidase can be obtained by extraction from plant materials; from tissue; host or cells: plant material (Berberis wilsoniae inferred).
Data set [5] shares this target. Nature of the data set: KM value of S-tetrahydroprotoberberineoxidase for substrate. It is filed as biochemical, Berberis wilsonae var. subcaulialata. The arrangement: S-tetrahydroprotoberberineoxidase can be obtained by extraction from plant materials; from tissue; host or cells: plant material (Berberis wilsoniae inferred). The note with it: at 40° C. and pH 8.9. As for the experimental part:
KM value for R,S-corypalmine at 40° C. and pH 8.9, 1.3 μMoles

As for `COc1ccc(C[C@H]2NCCc3cc(OC)c(O)cc32)cc1O` [R-norreticuline], the “Fate of R-form under enzymatic oxidation” value in data set [1] (after 16 hours) is listed as “remained unchanged”.

In the case of `COc1cc2c(cc1O)CCN1Cc3c(ccc(OC)c3OC)C[C@@H]21` [S-corypalmine], in data set [2] (2 h), the “Conversion of S-form into oxidized product” value came to 100%.

For the molecule `COc1ccc(C[C@@H]2NCCc3cc(OC)c(O)cc32)cc1O` [S-norreticuline], in data set [3], the “Conversion to 1,2-dehydronorreticuline” value is “complete conversion”. Further, the “Conversion of S-form into oxidized product” value in data set [1] (after 16 hours) came to 100%.

As to `COc1ccc2c(c1)CCN[C@@H]2Cc1cc(O)cc(O)c1` [R-form], in data set [1] (after 16 hours), the “Fate of R-form under enzymatic oxidation” value is reported as “remained unchanged”.

As for `CC(=O)CC(C)=O` [acetylacetone], the “Inhibition of the enzyme in the presence of the substance” value in data set [4] is “Complete and reversible inhibition”.

In the case of `COc1cc2c(cc1O)CCN1Cc3c(ccc(OC)c3OC)CC21` (racemic) [R,S-corypalmine], in data set [5], the Michaelis-Menten constant (Km) (as a rule, the concentration of substrate that gives half-maximal velocity) was determined as 1300 nM.

For the molecule `COc1ccc2c(c1OC)CN1CCc3cc4c(cc3[C@@H]1C2)OCO4` [S-canadine], the “Conversion of S-form into oxidized product” value in data set [1] (after 2 hours) is reported as 100%.

Turning to `O=c1c(O)c(-c2ccc(O)cc2O)oc2cc(O)cc(O)c12` [morin], in data set [4], the “Inhibition of the enzyme in the presence of the substance” value is “Complete and reversible inhibition”.

`COc1cc2c(cc1O)CCN1Cc3c(ccc(OC)c3OC)C[C@H]21` [R-corypalmine]: the “Fate of R-form under enzymatic oxidation” value in data set [1] (after 2 hours) is “remained unchanged”.

Take `COc1ccc2c(c1OC)CN1CCc3cc4c(cc3[C@H]1C2)OCO4` [R-canadine]: the “Fate of R-form under enzymatic oxidation” value in data set [1] (after 2 hours) is “remained unchanged”.

Consider `COc1ccc2c(c1)CCN[C@H]2Cc1cc(O)cc(O)c1` [S-[1-(3',5'-dihydroxy-benzyl)-6-methoxy-1,2,3,4-tetrahydroisoquinoline]], for which the “Conversion of S-form into oxidized product” value in data set [2] (16 h) turned out to be 100%.
